{"source": "patent US11964974B1", "about": "“Imidazo[1,2-c]pyrido[3,4-e]pyrimidine-3-carboxylic acids as CK2 inhibitors” (KING FAISAL UNIVERSITY, priority 2024, dated 2024)", "key": {"[1]": {"system": "MIAPaCa-2 (pancreas)", "assay": "In vitro cytotoxic activity assay (MTT), MIAPaCa-2", "format": "cell-based", "conditions": "Homo sapiens, MIA PaCa-2; MIAPaCa-2 (pancreas) cells, exposed for 96 hours; read-out: Cytotoxicity activity IC50", "method": "(§1) Compounds 1-16 were screened for their in vitro cytotoxic activity utilizing a 3-(4,5-dimethyl-thiazol-2-yl)-2,5-diphenyltetrazolium bromide (MTT) assay against selected cancer human cell lines consisting of PC3 (prostate), HCT116 (colon), A375 (melanoma), H1299 (lung), MIAPaCa-2 (pancreas), HL60 (leukemia), MCF7 (breast), MDA-MB-231 (breast) (T. Mosmann, J. Immunol. Meth., 1983, 65, 55-63). The cells were cultured at 37° C. in RMPI1640 medium supplemented with 10% fetal bovine serum, 50 IU/mL penicillin, and 50 μg/mL streptomycin in a 5% CO2 incubator. All cells were sub-cultured 3 times/week by trypsinisation. Viable cells were seeded and allowed to adhere for 12 hours before a test drug was added in 96-well plates at an initial density of 1.0×10^5 cells/mL. Tumor cell lines were separately exposed to various concentrations of the tested compounds followed by incubation at a temperature of 37° C. during 96 hours inside a medium of fresh RMPI 1640. Cells were subsequently incubated at 37° C. using MTT at 0.5 mg/mL during 4 hours. After removal of supernatant, formazan crystals were dissolved in isopropanol and the optical density was measured at 570 nm. CX-4945 was used as a positive control."}, "[2]": {"system": "PC3 (prostate)", "assay": "In vitro cytotoxic activity assay (MTT), PC3", "format": "cell-based", "conditions": "Homo sapiens, Prostate cell; PC3 (prostate) cells, exposed for 96 hours; read-out: Cytotoxicity activity IC50", "method": "as §1"}, "[3]": {"system": "MDA-MB-231 (breast)", "assay": "In vitro cytotoxic activity assay (MTT), MDA-MB-231", "format": "cell-based", "conditions": "Homo sapiens; MDA-MB-231 (breast) cells, exposed for 96 hours; read-out: Cytotoxicity activity IC50", "method": "as §1"}, "[4]": {"system": "HCT116 (colon)", "assay": "In vitro cytotoxic activity assay (MTT), HCT116", "format": "cell-based", "conditions": "Homo sapiens, HCT-116; HCT116 (colon) cells, exposed for 96 hours; read-out: Cytotoxicity activity IC50", "method": "as §1"}, "[5]": {"system": "HL60 (leukemia)", "assay": "In vitro cytotoxic activity assay (MTT), HL60", "format": "cell-based", "conditions": "Homo sapiens, HL-60; HL60 (leukemia) cells, exposed for 96 hours; read-out: Cytotoxicity activity IC50", "method": "as §1"}, "[6]": {"system": "H1299 (lung)", "assay": "In vitro cytotoxic activity assay (MTT), H1299", "format": "cell-based", "conditions": "Homo sapiens, NCI-H1299; H1299 (lung) cells, exposed for 96 hours; read-out: Cytotoxicity activity IC50", "method": "as §1"}, "[7]": {"system": "A375 (melanoma)", "assay": "In vitro cytotoxic activity assay (MTT), A375", "format": "cell-based", "conditions": "Homo sapiens, A-375; A375 (melanoma) cells, exposed for 96 hours; read-out: Cytotoxicity activity IC50", "method": "as §1"}, "[8]": {"molecular_target": "T1, recombinant human CK2 (RRββ-holoenzyme) (Homo sapiens, UniProt P68400)", "T1 construct": "purchased Millipore", "T1 sequence (P68400 whole entry)": "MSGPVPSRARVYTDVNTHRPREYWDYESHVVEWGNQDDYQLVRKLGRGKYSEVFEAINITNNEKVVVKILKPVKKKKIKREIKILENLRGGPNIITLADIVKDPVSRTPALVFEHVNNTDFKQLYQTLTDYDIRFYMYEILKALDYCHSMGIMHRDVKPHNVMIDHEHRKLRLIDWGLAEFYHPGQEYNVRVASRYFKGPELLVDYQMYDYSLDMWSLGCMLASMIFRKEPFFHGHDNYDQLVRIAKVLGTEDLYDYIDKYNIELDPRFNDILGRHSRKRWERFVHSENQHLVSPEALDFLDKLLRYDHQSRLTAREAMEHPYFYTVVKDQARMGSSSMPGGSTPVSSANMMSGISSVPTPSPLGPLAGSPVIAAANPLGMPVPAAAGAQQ", "T1 sequence (P67870 whole entry partner)": "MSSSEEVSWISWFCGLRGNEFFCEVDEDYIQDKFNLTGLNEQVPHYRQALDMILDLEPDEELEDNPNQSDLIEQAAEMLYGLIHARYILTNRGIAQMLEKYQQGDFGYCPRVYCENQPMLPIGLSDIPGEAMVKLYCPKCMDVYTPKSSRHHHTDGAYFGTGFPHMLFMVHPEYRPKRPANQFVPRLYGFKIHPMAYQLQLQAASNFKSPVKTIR", "assay": "CK2 Kinase Assay (radiometric, [γ-33P]ATP)", "format": "biochemical", "conditions": "final ATP concentration 15 μM, 10 min at 30° C.; read-out: protein kinase CK2 inhibition IC50", "method": "CK2 Kinase Assay was conducted using the protocol as described in Pierre F. et al; J. Med. Chem. 2011, 54, 635-654. The tested compounds in aqueous solution were added at a volume of 10 μL to a reaction mixture comprising 10 μL of assay dilution buffer (ADB; 20 mM MOPS, pH 7.2, 25 mM β-glycerol phosphate, 5 mM EGTA, 1 mM sodium orthovanadate, and 1 mM dithiothreitol), 10 μL of substrate peptide (RRRDDDSDDD, dissolved in ADB at a concentration of 1 mM), 10 μL of recombinant human CK2 (RRββ-holoenzyme, 25 ng dissolved in ADB; Millipore). Reactions were initiated by the addition of 10 μL of ATP solution (90% 75 mMMgCl2, 75 μM ATP (final ATP concentration: 15 μM) dissolved in ADB; 10% [γ-33P] ATP (stock 1 mCi/100 μL; 3000 Ci/mmol (Perkin-Elmer) and maintained for 10 min at 30° C. The reactions were quenched with 100 μL of 0.75% phosphoric acid and then transferred to and filtered through a phosphor cellulose filter plate (Millipore). After washing each well five times with 0.75% phosphoric acid, the plate was dried under vacuum for 5 min and, following the addition of 15 μL of scintillation fluid to each well, the residual radioactivity was measured using a Wallac luminescence counter. The IC50 values were derived from eight concentrations of test inhibitors."}, "[9]": {"system": "MCF7 (breast)", "assay": "In vitro cytotoxic activity assay (MTT), MCF7", "format": "cell-based", "conditions": "Homo sapiens; MCF7 (breast) cells, exposed for 96 hours; read-out: Cytotoxicity activity IC50", "method": "as §1"}}}
{"smiles": "O=C(O)c1cnc2c3cnccc3nc(Nc3cccc(Cl)c3)n12", "note": "[Compound 1, 5-((3-chlorophenyl)amino)imidazo[1,2-c]pyrido[3,4-e]pyrimidine-3-carboxylic acid]", "values": [{"measurement": "IC50", "setting": "[1]", "result": 1.6, "unit": "µM"}, {"measurement": "IC50", "setting": "[2]", "result": 1.8, "unit": "µM"}, {"measurement": "IC50", "setting": "[3]", "result": 4.9, "unit": "µM"}, {"measurement": "IC50", "setting": "[4]", "result": 3.2, "unit": "µM"}, {"measurement": "IC50", "setting": "[5]", "result": 6.7, "unit": "µM"}, {"measurement": "IC50", "setting": "[6]", "result": 2.9, "unit": "µM"}, {"measurement": "IC50", "setting": "[7]", "result": 5.6, "unit": "µM"}, {"measurement": "IC50", "setting": "[8]", "result": 0.035, "unit": "µM"}, {"measurement": "IC50", "setting": "[9]", "result": 5.3, "unit": "µM"}]}
